These results are taken from US7524964B2, “Tetrahydrothiopyrano pyrazole cannabinoid modulators” (Janssen Pharmaceutica NV, priority 2005, dated 2009).

One test addresses T1, human CB-2 receptor (Homo sapiens, UniProt P34972).
T1 construct: expressed in transfected cells; host or cells: SK-N-MC cells, pcDNA3 CB-2 (human), semi-purified membranes
The experiment in a line: Binding assay, cannabinoid CB2 receptor ([3H]-CP-55,940 displacement). The conditions noted are these: read-out: CB2 binding percent inhibition; for inhibition at 0.2 µM: test concentration 0.2 μM (superscript a); for inhibition at 1 µM: test concentration 1 μM (superscript b); for inhibition at 10 µM: test concentration 10 μM (superscript c). The procedure, abridged:
(§1)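 Membranes from SK-N-MC cells stably expressing human CB-1 or CB-2 were incubated 90 min at 30° C with 0.2 nM [3H]-CP-55,940 in pH 7.5 Tris buffer with fatty-acid-free BSA; 10 uM WIN 55,212 defined non-specific binding. Filter-bound counts gave IC50 by linear regression, or percent inhibition at 0.2, 1 or 10 μM.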

In the next test the target is human CB1 receptor (Homo sapiens, UniProt P21554). Description: Binding assay, cannabinoid CB1 receptor ([3H]-CP-55,940 displacement). The settings on record: for inhibition at 0.2 µM: test concentration 0.2 μM (superscript a); for inhibition at 0.2 µM / inhibition at 1 µM / inhibition at 10 µM: read-out: CB1 binding percent inhibition; for inhibition at 1 µM: test concentration 1 μM (superscript b); for inhibition at 10 µM: test concentration 10 μM (superscript c). Also on record: expressed in transfected cells; host or cells: SK-N-MC cells, pcDNA3 CB-1 (human), semi-purified membranes. Put shortly:
as §1

pIC50: −log10 of the molar value.

T1 sequence (P34972 whole entry): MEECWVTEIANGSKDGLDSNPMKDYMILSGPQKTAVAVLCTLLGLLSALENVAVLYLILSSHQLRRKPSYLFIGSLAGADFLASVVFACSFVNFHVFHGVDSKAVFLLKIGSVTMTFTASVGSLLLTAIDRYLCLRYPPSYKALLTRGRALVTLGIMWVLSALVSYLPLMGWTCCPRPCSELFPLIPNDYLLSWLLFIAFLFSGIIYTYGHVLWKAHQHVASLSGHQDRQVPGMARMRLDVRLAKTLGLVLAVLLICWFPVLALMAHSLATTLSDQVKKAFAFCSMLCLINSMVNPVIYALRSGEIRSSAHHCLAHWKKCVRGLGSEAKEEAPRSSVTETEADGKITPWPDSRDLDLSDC
Chain of human CB1 receptor (P21554 whole entry): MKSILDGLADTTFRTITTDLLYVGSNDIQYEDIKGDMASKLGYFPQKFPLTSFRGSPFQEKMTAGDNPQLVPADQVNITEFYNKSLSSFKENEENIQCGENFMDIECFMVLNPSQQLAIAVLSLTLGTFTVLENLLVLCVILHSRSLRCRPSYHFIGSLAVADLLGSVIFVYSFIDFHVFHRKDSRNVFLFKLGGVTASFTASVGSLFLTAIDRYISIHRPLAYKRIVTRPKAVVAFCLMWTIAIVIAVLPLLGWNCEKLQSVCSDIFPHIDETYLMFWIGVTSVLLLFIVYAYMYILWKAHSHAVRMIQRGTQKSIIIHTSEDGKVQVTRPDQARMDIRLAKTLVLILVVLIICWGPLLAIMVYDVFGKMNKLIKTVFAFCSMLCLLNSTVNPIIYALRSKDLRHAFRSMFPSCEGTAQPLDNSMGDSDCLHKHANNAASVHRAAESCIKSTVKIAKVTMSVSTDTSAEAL

As a reminder, the inhibition is the drop in the measured response relative to a control, in per cent. Take `C[C@H](NC(=O)c1c2c(nn1-c1ccc(Cl)cc1Cl)/C(=C/c1ccc(F)cc1)CSC2)c1ccccc1` [Cpd 91, (7Z)-2-(2,4-dichloro-phenyl)-7-(4-fluoro-benzylidene)-2,4,6,7-tetrahydro-thiopyrano[4,3-c]pyrazole-3-carboxylic acid [(1S)-1-phenyl-ethyl]-amide]: the inhibition at 0.2 µM worked out at 14% on human CB-2 receptor and 38% at human CB1 receptor.

For `C[C@H](NS(=O)(=O)/C=C/c1c2c(nn1Cc1ccccc1)CCS(=O)(=O)C2)C1CCCCC1` [Cpd 17, (E)-2-(2-benzyl-5,5-dioxo-4,5,6,7-tetrahydro-2H-5λ^6-thiopyrano[4,3-c]pyrazol-3-yl)-ethenesulfonic acid [(1S)-1-cyclohexyl-ethyl]-amide], the figures for the inhibition at 1 µM at human CB-2 receptor and on human CB1 receptor were 24% and 0%, respectively.

In the case of `CC1CCCC(C)N1NC(=O)c1nn(-c2ccc(Cl)cc2Cl)c2c1CS(=O)(=O)C/C2=C\c1ccc(F)cc1` (stereo not drawn) [Cpd 108, (7Z)-1-(2,4-dichloro-phenyl)-7-(4-fluoro-benzylidene)-5,5-dioxo-4,5,6,7-tetrahydro-1H-5λ^6-thiopyrano[4,3-c]pyrazole-3-carboxylic acid (2,6-dimethyl-piperidin-1-yl)-amide], the inhibition at 0.2 µM on human CB-2 receptor stood at 18%; at human CB1 receptor, 88%.

Regarding `COC[C@@H]1CCCN1NC(=O)c1nn(-c2ccc(Cl)cc2Cl)c2c1CSC/C2=C\c1ccc(F)cc1` [Cpd 123, (7Z)-1-(2,4-dichloro-phenyl)-7-(4-fluoro-benzylidene)-1,4,6,7-tetrahydro-thiopyrano[4,3-c]pyrazole-3-carboxylic acid [(2S)-2-(methoxymethyl)-pyrrolidin-1-yl]-amide], the inhibition at 0.2 µM on human CB-2 receptor turned out to be 12%; on human CB1 receptor, 61%.

As to `C[C@H](NS(=O)(=O)/C=C/c1nn(-c2ccc(F)cc2F)c2c1CS(=O)(=O)CC2Cc1cccc(F)c1)c1ccccc1` (stereo partly drawn) [Cpd 42, (E)-2-[1-(2,4-difluoro-phenyl)-7-(3-fluoro-benzyl)-5,5-dioxo-4,5,6,7-tetrahydro-1H-5λ^6-thiopyrano[4,3-c]pyrazol-3-yl]-ethenesulfonic acid [(1S)-1-phenyl-ethyl]-amide], the inhibition at 0.2 µM is 20% on human CB-2 receptor and 31% at human CB1 receptor.

For `O=C(NN1CCCCC1)c1nn(-c2ccc(Cl)cc2)c2c1C[S+]([O-])C/C2=C\c1ccc(F)cc1` (stereo not drawn) [Cpd 96, (7Z)-1-(4-chloro-phenyl)-7-(4-fluoro-benzylidene)-5-oxo-4,5,6,7-tetrahydro-1H-5λ^4-thiopyrano[4,3-c]pyrazole-3-carboxylic acid piperidin-1-ylamide], the inhibition at 0.2 µM was 9% at human CB-2 receptor and 43% on human CB1 receptor.

For `CCOC(=O)[C@@H]1C2CCC(C2)[C@@H]1NC(=O)c1nn(-c2ccc(F)cc2F)c2c1CS(=O)(=O)C[C@@H]2Cc1cccc(F)c1` (stereo partly drawn) [Cpd 49, (2R,3S)-3-{[1-(2,4-difluoro-phenyl)-(7R)-(3-fluoro-benzyl)-5,5-dioxo-4,5,6,7-tetrahydro-1H-5λ^6-thiopyrano[4,3-c]pyrazole-3-carbonyl]-amino}-bicyclo[2.2.1]heptane-2-carboxylic acid ethyl ester], the inhibition at 0.2 µM at human CB-2 receptor was determined as 6%; on human CB1 receptor, 33%.

With `C[C@@H](NC(=O)/C=C/c1nn(Cc2ccccc2)c2c1C[S+]([O-])CC2)c1ccccc1` (stereo partly drawn) [Cpd 35, (2E)-3-(1-benzyl-5-oxo-4,5,6,7-tetrahydro-1H-5λ^4-thiopyrano[4,3-c]pyrazol-3-yl)-N-[(1R)-1-phenyl-ethyl]-acrylamide], the inhibition at 10 µM at human CB-2 receptor stood at 28%; on human CB1 receptor, 4%.

As to `C[C@@H](NS(=O)(=O)/C=C/c1nn(Cc2ccccc2)c2c1CSCC2)c1ccccc1` [Cpd 7, (E)-2-(1-benzyl-1,4,6,7-tetrahydro-thiopyrano[4,3-c]pyrazol-3-yl)-ethenesulfonic acid [(1R)-1-phenyl-ethyl]-amide], the figures for the inhibition at 1 µM at human CB-2 receptor and at human CB1 receptor were 44% and 15%, respectively.

Broadly, the pIC50 is the negative decadic logarithm of the IC50, by convention in mol/L. Higher therefore signals a low IC50. Turning to `O=C(NN1CC2CCCC2C1)c1c2c(nn1-c1ccc(Cl)cc1Cl)/C(=C/c1ccc(F)cc1)CS(=O)(=O)C2` (stereo not drawn) [Cpd 87, (7Z)-2-(2,4-dichloro-phenyl)-7-(4-fluoro-benzylidene)-5,5-dioxo-4,5,6,7-tetrahydro-2H-5λ^6-thiopyrano[4,3-c]pyrazole-3-carboxylic acid (hexahydro-cyclopenta[c]pyrrol-2-yl)-amide], at human CB-2 receptor, the inhibition at 0.2 µM worked out at 4%. The compound also had a pIC50 on human CB1 receptor of 7.74.

`CCOC(=O)[C@@H]1C2CCC(C2)[C@@H]1NC(=O)c1nn(-c2ccc(F)cc2F)c2c1CS(=O)(=O)C[C@H]2Cc1cccc(F)c1` (stereo partly drawn) [Cpd 50, (2R,3S)-3-{[1-(2,4-difluoro-phenyl)-(7S)-(3-fluoro-benzyl)-5,5-dioxo-4,5,6,7-tetrahydro-1H-5λ^6-thiopyrano[4,3-c]pyrazole-3-carbonyl]-amino}-bicyclo[2.2.1]heptane-2-carboxylic acid ethyl ester]: the inhibition at 0.2 µM was 24% on human CB-2 receptor and 50% at human CB1 receptor.

Take `C[C@@H](NC(=O)c1nn(-c2ccc(Cl)cc2Cl)c2c1CSC/C2=C\c1ccc(F)cc1)c1ccccc1` [Cpd 63, (7Z)-1-(2,4-dichloro-phenyl)-7-(4-fluoro-benzylidene)-1,4,6,7-tetrahydro-thiopyrano[4,3-c]pyrazole-3-carboxylic acid [(1R)-1-phenyl-ethyl]-amide]: the inhibition at 0.2 µM on human CB-2 receptor was 6%. On human CB1 receptor, the pIC50 was 8.05.

For `O=C(NN1CCCCCC1)c1nn(-c2ccc(Cl)cc2Cl)c2c1CS(=O)(=O)C/C2=C\c1ccc(Cl)o1` [Cpd 120, (7Z)-7-(5-chloro-furan-2-ylmethylene)-1-(2,4-dichloro-phenyl)-5,5-dioxo-4,5,6,7-tetrahydro-1H-5λ^6-thiopyrano[4,3-c]pyrazole-3-carboxylic acid azepan-1-ylamide], the inhibition at 0.2 µM at human CB-2 receptor came out at 12%. Moreover, the negative logarithm of the IC50 (pIC50) on human CB1 receptor was 7.48.

With `O=C(NCc1ccccn1)c1nn(-c2ccc(Cl)cc2Cl)c2c1CS(=O)(=O)C/C2=C\c1ccc(F)cc1` [Cpd 73, (7Z)-1-(2,4-dichloro-phenyl)-7-(4-fluoro-benzylidene)-5,5-dioxo-4,5,6,7-tetrahydro-1H-5λ^6-thiopyrano[4,3-c]pyrazole-3-carboxylic acid (pyridin-2-ylmethyl)-amide], the inhibition at 0.2 µM is 13% on human CB-2 receptor and 56% at human CB1 receptor.

For the compound `O=C(NN1CC2CCCC2C1)c1nn(-c2ccc(F)cc2F)c2c1CS(=O)(=O)C/C2=C\c1ccc(F)cc1` (stereo not drawn) [Cpd 105, (7Z)-1-(2,4-difluoro-phenyl)-7-(4-fluoro-benzylidene)-5,5-dioxo-4,5,6,7-tetrahydro-1H-5λ^6-thiopyrano[4,3-c]pyrazole-3-carboxylic acid (hexahydro-cyclopenta[c]pyrrol-2-yl)-amide], the inhibition at 0.2 µM on human CB-2 receptor was 11%; at human CB1 receptor it was 50%.

Regarding `C[C@@H](NS(=O)(=O)/C=C/c1c2c(nn1Cc1ccccc1)CCS(=O)(=O)C2)C1CCCCC1` [Cpd 16, (E)-2-(2-benzyl-5,5-dioxo-4,5,6,7-tetrahydro-2H-5λ^6-thiopyrano[4,3-c]pyrazol-3-yl)-ethenesulfonic acid [(1R)-1-cyclohexyl-ethyl]-amide], the inhibition at 1 µM at human CB-2 receptor and at human CB1 receptor was 0% in each case.

Consider `C[C@H](NS(=O)(=O)/C=C/c1nn(Cc2ccccc2)c2c1CSCC2)C1CCCCC1` [Cpd 12, (E)-2-(1-benzyl-1,4,6,7-tetrahydro-thiopyrano[4,3-c]pyrazol-3-yl)-ethenesulfonic acid [(1S)-1-cyclohexyl-ethyl]-amide], for which the inhibition at 1 µM on human CB-2 receptor came out at 42%; on human CB1 receptor it was 15%.

For `O=C(NN1CCCCC1)c1nn(-c2ccc(Cl)cc2Cl)c2c1CSC/C2=C\c1ccc(Br)cc1` [Cpd 130, (7Z)-(4-Bromo-benzylidene)-1-(2,4-dichloro-phenyl)-1,4,6,7-tetrahydro-thiopyrano[4,3-c]pyrazole-3-carboxylic acid piperidin-1-ylamide], on human CB-2 receptor, the inhibition at 0.2 µM turned out to be 34%. This compound gave a pIC50 on human CB1 receptor of 7.68.

`C[C@H](NC(=O)/C=C/c1nn(Cc2ccccc2)c2c1C[S+]([O-])CC2)c1ccccc1` (stereo partly drawn) [Cpd 34, (2E)-3-(1-benzyl-5-oxo-4,5,6,7-tetrahydro-1H-5λ^4-thiopyrano[4,3-c]pyrazol-3-yl)-N-[(1S)-1-phenyl-ethyl]-acrylamide]: the values for the inhibition at 10 µM at human CB-2 receptor and at human CB1 receptor were 21% and 11%, respectively.

For `CN1CCN(NC(=O)c2nn(-c3ccc(Cl)cc3Cl)c3c2CS(=O)(=O)C/C3=C\c2ccc(F)cc2)CC1` [Cpd 109, (7Z)-1-(2,4-dichloro-phenyl)-7-(4-fluoro-benzylidene)-5,5-dioxo-4,5,6,7-tetrahydro-1H-5λ^6-thiopyrano[4,3-c]pyrazole-3-carboxylic acid (4-methyl-piperazin-1-yl)-amide], the figures for the inhibition at 0.2 µM on human CB-2 receptor and on human CB1 receptor were 6% and 4%, respectively.

With `O=S(=O)(/C=C/c1nn(-c2ccc(F)cc2F)c2c1CSCC2Cc1cccc(F)c1)NN1CCOCC1` (stereo not drawn) [Cpd 41, (E)-2-[1-(2,4-difluoro-phenyl)-7-(3-fluoro-benzyl)-1,4,6,7-tetrahydro-thiopyrano[4,3-c]pyrazol-3-yl]-ethenesulfonic acid morpholin-4-ylamide], the inhibition at 0.2 µM at human CB-2 receptor was found to be 8%; on human CB1 receptor, 9%.
